Data reported in patent US20220323389A1, “TREATING NON-ALCOHOLIC FATTY LIVER DISEASE AND INFLAMMATORY STEATOHEPATITIS WITH SLC25A1 INHIBITORS” (GEORGETOWN UNIVERSITY, priority 2019, published 2022).

Experiments:
HFD-fed mice [1] = test: Inflammation and fibrosis in HFD-fed mice (serum interleukins, macrophage IHC, RT-PCR, Picro-Sirius Red); assay type: in vivo, mouse
Text: (§1) Cells, reagents, antibodies, primers. CTPI-2 was purchased from Enamine Ltd. (Monmouth Jct, N.J.). The anti-SLC25A1 antibody used in immunoblots was either from Santa Cruz Biotech (Dallas, Tex.), (#sc-86392), employed at 1:1000 dilution, or from Proteintech (15235-1-AP, Rosemont, Ill.), employed at 1:1000 dilution. Mice and diets. For the majority of the experiments (except for experiments harboring genetic alterations of the Slc25a1 gene), DIO C57BL/6J mice were purchased from Jackson Laboratory (Bar Harbor, Me.) between 4-6 weeks of age. Mice were acclimated in the Georgetown University animal facility for at least one week. At the indicated times, mice were randomized to a standard laboratory chow diet (Labdiet #5053, St. Louis, Mo.) or the high fat diet (Researchdiets D12492, New Brunswick, N.J.), with 60% calories derived from fat (lard), and 20% from sucrose. During the course of the experiments, mice were housed at one mouse per cage and food consumption was measured regularly. Animals were maintained in a normal light-cycle and provided with water ad libitum. CTPI-2 treatment. CTPI-2 was administered at 50 mg/kg via intra-peritoneal injection on alternate days. CTPI-2 was diluted either in DMSO (at 0.2% final concentration) using DMSO as vehicle control, or in 0.47% Sodium Bicarbonate (NaCO3) at a final concentration of 14 mM. NaCO3 (0.47%) served as vehicle control. Immunoblot of murine tissues. Frozen tissue samples were homogenized in radioimmunoprecipitation (RIPA) buffer with protease inhibitor cocktails. Protein quantification was done by using a Coomassie (Bradford) Protein Assay Kit (Pierce, Waltham Mass.). Equal amount of protein lysate was loaded and separated by Novex™ 4-20% Tris-Glycine Mini Gel (Invitrogen, Carlsbad, Calif.), then transferred to a PVDF membrane. Appropriate horseradish peroxidase-conjugated secondary antibody (Invitrogen) was applied after incubation with primary antibody. SuperSignal™ West Pico PLUS Chemiluminescent Substrate (Thermo Fisher Scientific, Waltham, Mass.) was used for protein detection. SLC25a1 strains. The original Slc25a1 tm1a strain was purchased from the Mutant Mouse Resource and Research Center (MMRRC, Chapel Hill, N.C.) (C57BL/6N-Slc25a1^tm1a(EUCOMM)Wtsi, RRID: MMRRC_042258-UCD). The Tg(Alb-cre)21M (Alb-Cre) mice were purchased from Jackson Laboratory (#003574). Slc25a1^+/−, Slc25a1^fl/fl and Alb/Cre mice were genotyped by conventional PCR with genomic DNA extracted from the mouse tail biopsies. Agarose gel electrophoresis was used for analysis of PCR product analysis. The PCR conditions used were as follows: 95° C. for 4 minutes, followed by 40 cycles (95° C. for 30 seconds, 65° C. for 30 seconds, and 72° C. for 50 seconds), 72° C. for 2 min then kept in 4° C. before used. Histological Analysis. Assessment of steatosis was performed on paraffin embedded H&E stained sections derived from 3-6 animals and on multiple images for each animal. The steatosis grade was scored according to the degree of liver involvement with 0, <5%; 1, 5% to 33%; 2, 33% to 50%; and 3, >50%. Alternatively, the percentage of steatosis per area was calculated with ImageJ program. Lypidomic analysis. Targeted quantitation of triglycerides was performed using multiple reaction monitoring mass spectrometry. The samples were resolved on an CORTECS T3 2.7 μm, 2.1×30 mm column online with a triple quadrupole mass spectrometer (Xevo-TQ-S, Waters Corporation, Milford, Mass.) operating in the multiple reaction monitoring (MRM) mode. Signal intensities from all MRM Q1/Q3 ion pairs for triglycerides were ranked to ensure selection of the most intense precursor and fragment ion pair for MRM-based quantitation. […] The LC and MRM method used here for the study was developed by Waters Corporation. The metabolite ratios were calculated by normalizing the peak area of endogenous metabolites within tissue samples normalized to the internal standard. Processed data was normalized with respect to tissue weight taken for analysis. […]

HFD-fed mice [2] = test: Glucose homeostasis in HFD-fed mice (fasting glucose, GTT, ITT); assay type: in vivo, mouse
Text: Cells, reagents, antibodies, primers. CTPI-2 was purchased from Enamine Ltd. (Monmouth Jct, N.J.). The anti-SLC25A1 antibody used in immunoblots was either from Santa Cruz Biotech (Dallas, Tex.), (#sc-86392), employed at 1:1000 dilution, or from Proteintech (15235-1-AP, Rosemont, Ill.), employed at 1:1000 dilution. Mice and diets. For the majority of the experiments (except for experiments harboring genetic alterations of the Slc25a1 gene), DIO C57BL/6J mice were purchased from Jackson Laboratory (Bar Harbor, Me.) between 4-6 weeks of age. Mice were acclimated in the Georgetown University animal facility for at least one week. At the indicated times, mice were randomized to a standard laboratory chow diet (Labdiet #5053, St. Louis, Mo.) or the high fat diet (Researchdiets D12492, New Brunswick, N.J.), with 60% calories derived from fat (lard), and 20% from sucrose. During the course of the experiments, mice were housed at one mouse per cage and food consumption was measured regularly. Animals were maintained in a normal light-cycle and provided with water ad libitum. CTPI-2 treatment. CTPI-2 was administered at 50 mg/kg via intra-peritoneal injection on alternate days. […] Protein quantification was done by using a Coomassie (Bradford) Protein Assay Kit (Pierce, Waltham Mass.). […] The steatosis grade was scored according to the degree of liver involvement with 0, <5%; 1, 5% to 33%; 2, 33% to 50%; and 3, >50%. Alternatively, the percentage of steatosis per area was calculated with ImageJ program. […] Targeted quantitation of triglycerides was performed using multiple reaction monitoring mass spectrometry. […] Signal intensities from all MRM Q1/Q3 ion pairs for triglycerides were ranked to ensure selection of the most intense precursor and fragment ion pair for MRM-based quantitation. […] The metabolite ratios were calculated by normalizing the peak area of endogenous metabolites within tissue samples normalized to the internal standard. […]

[3] = system: C57Bl/6J mice fed with the HFD; test: Diet-Induced-Obesity (DIO) model: body weight, fat and organ weights of HFD-fed mice; assay type: in vivo
Text: as §1

[4] = system: liver gene expression program induced by the HFD; test: RNAseq, RT-qPCR and immunoblot of liver (and WAT) of HFD-fed mice; assay type: in vivo, mouse
Text: as §1

[5] = HFD-fed mice, CTPI-2 vs vehicle
[6] = time course of CTPI-2 treatment
[7] = HFD-fed mice, CTPI-2 50 mg/kg i.p. alternate days
[8] = liver, 4 weeks of CTPI-2 treatment
[9] = liver, normalized to HFD-vehicle

O=C(O)c1ccccc1NS(=O)(=O)c1ccc(Cl)c([N+](=O)[O-])c1 [CTPI-2]
collagen in the liver (Picro-Sirius Red) (HFD-fed mice [1]; HFD-fed mice): reduction of collagen in the liver
circulating serum IL-4 (HFD-fed mice [1]; [5]): increasing
circulating serum IL-6 (HFD-fed mice [1]; [5]): lowered
circulating serum IL-10 (HFD-fed mice [1]; [5]): increasing
monocyte chemo-attractant protein-1 (MCP1) (HFD-fed mice [1]; HFD-fed mice, serum): reduced
monokine induced by interferon-γ (MIG) (HFD-fed mice [1]; HFD-fed mice, serum): reduced
adipose tissue macrophage infiltration organized in crown-like structures (HFD-fed mice [1]; HFD-fed mice, IHC): completely resolved this phenotype
liver Kupffer cell macrophage population (F4/80) and perivascular macrophage infiltration (HFD-fed mice [1]; HFD-fed mice, IHC): reversed
M2 markers (MRC1, FN-1, Arg1) mRNA (HFD-fed mice [1]; liver of HFD-fed mice, RT-PCR): either not affecting or increasing
expression of anti-fibrotic cadherin 1 (HFD-fed mice [1]; liver of HFD-fed mice, RT-PCR): increase
expression of pro-fibrotic genes (collagen 1 and 4, keratin 19, PDGFR) (HFD-fed mice [1]; liver of HFD-fed mice, RT-PCR): reduction
pro-inflammatory markers of the M1 phenotype (mRNA) (HFD-fed mice [1]; liver of HFD-fed mice, RT-PCR): repressed
basal fasting glucose levels (HFD-fed mice [2]; CTPI-2 50 mg/kg i.p. alternate days): reduced the basal fasting glucose levels
glucose tolerance test (GTT) (HFD-fed mice [2]; [6]): complete time-dependent normalization
insulin tolerance test (ITT) (HFD-fed mice [2]; [6]): complete time-dependent normalization
feeding behavior (daily food consumption) ([3]; C57BL/6J mice, CTPI-2 50 mg/kg i.p. on alternate days): did not modify feeding behavior
body weight gain ([3]; HFD 6 months, CTPI-2 50 mg/kg i.p. alternate days, started after 12 weeks of HFD): largely prevented such weight gain
WAT (visceral abdominal fat), also by MRI [3, 7]: reducing the WAT
WAT weight (mass) [3, 7]: reducing their mass
liver weight (mass) [3, 7]: reducing their mass
pale, enlarged liver phenotype (visual examination) [3, 7]: completely reverted this phenotype
bile acid biosynthetic pathway (RNAseq) ([4]; liver): inhibits bile acid biosynthetic pathway
protein levels matching the gene expression pattern (immunoblot) ([4]; liver and adipose tissue): concordantly paralleled by changes in the protein levels
cluster of genes involved in NAFLD (RNAseq) [4, 8]: down-regulated
gene expression program induced by the HFD (RNAseq) [4, 8]: essentially reverted the gene expression program induced by the HFD
levels of PPARγ ([4]; liver, RT-qPCR): unchanged
PPARγ and downstream target genes CEBPα1, CEBPα2 and GLUT4 (RT-qPCR) [4, 9]: down-regulated
master lipogenetic genes SREBP1, FASN and ACACA (RT-qPCR) [4, 9]: suppression
genes/pathways of carbon and pyruvate metabolism, glycolysis and gluconeogenic genes (RNAseq) ([4]; liver, Fbp1, PC, PCK1/2, G6PC, G6PC3, AldoA/B, PFKL/P, PGK1, PKLR): repressed
